{"source": "ChEMBL document CHEMBL4813953", "about": "“Kinetics-Driven Drug Design Strategy for Next-Generation Acetylcholinesterase Inhibitors to Clinical Candidate” (J Med Chem, 2021)", "key": {"[1]": {"assay": "AUC (0 to t) in Sprague-Dawley rat plasma at 10 mg/kg, po", "type": "ADME, organism-based", "parameters": "dose 10 mg/kg"}, "Mus musculus [2]": {"tested_on": "Mus musculus", "assay": "Cognitive enhancing effect in mouse model of scopolamine-induced memory impairment assessed as reduction in number of errors at 1 to 2 mg/kg, IG QD for 3 days by channel water maze test", "type": "functional, organism-based", "settings": "dose 1-2 mg/kg, time 3.0 day"}, "[3]": {"assay": "Protein binding in human plasma", "type": "ADME, cell-free", "settings": "read-out: PPB (converted)"}, "[4]": {"assay": "AUC (0 to infinity) in Sprague-Dawley rat at 0.5 mg/kg, po", "type": "ADME, organism-based", "parameters": "time infinity, route oral, dose 0.5 mg/kg", "settings": "in vivo"}, "[5]": {"assay": "Half life in Sprague-Dawley rat brain at 10 mg/kg, po", "type": "ADME, organism-based"}, "[6]": {"assay": "Toxicity in Beagle dog assessed as effect on blood pressure at 0.1 to 1 mg/kg", "type": "organism-based, Canis lupus familiaris", "settings": "in vivo, dose 0.1-1 mg/kg"}, "Mus musculus [7]": {"tested_on": "Mus musculus", "assay": "Improvement in learning and spatial memory in APP/PS1 double mutant-transgenic mouse model assessed as increase in time spent in target quadrant at 0.5 to 1 mg/kg, IG QD by Morris water maze test", "type": "functional, organism-based", "settings": "dose 0.5-1 mg/kg"}, "[8]": {"assay": "AUC (0 to infinity) in Sprague-Dawley rat plasma at 10 mg/kg, po", "type": "ADME, organism-based", "parameters": "route oral, time infinity, dose 10 mg/kg"}, "[9]": {"assay": "Cmax in human plasma at 4 mg, po", "type": "ADME, cell-free", "parameters": "route oral, dose 4 mg"}, "[10]": {"assay": "Toxicity in Beagle dog assessed as effect on respiration at 0.1 to 1 mg/kg", "type": "organism-based, Canis lupus familiaris", "settings": "in vivo, dose 0.1-1 mg/kg"}, "[11]": {"assay": "Tmax in Sprague-Dawley rat brain at 10 mg/kg, po", "type": "ADME, organism-based"}, "[12]": {"biological_target": "Voltage-gated inwardly rectifying potassium channel KCNH2 (Homo sapiens, UniProt Q12809)", "sequence (Q12809 whole entry)": "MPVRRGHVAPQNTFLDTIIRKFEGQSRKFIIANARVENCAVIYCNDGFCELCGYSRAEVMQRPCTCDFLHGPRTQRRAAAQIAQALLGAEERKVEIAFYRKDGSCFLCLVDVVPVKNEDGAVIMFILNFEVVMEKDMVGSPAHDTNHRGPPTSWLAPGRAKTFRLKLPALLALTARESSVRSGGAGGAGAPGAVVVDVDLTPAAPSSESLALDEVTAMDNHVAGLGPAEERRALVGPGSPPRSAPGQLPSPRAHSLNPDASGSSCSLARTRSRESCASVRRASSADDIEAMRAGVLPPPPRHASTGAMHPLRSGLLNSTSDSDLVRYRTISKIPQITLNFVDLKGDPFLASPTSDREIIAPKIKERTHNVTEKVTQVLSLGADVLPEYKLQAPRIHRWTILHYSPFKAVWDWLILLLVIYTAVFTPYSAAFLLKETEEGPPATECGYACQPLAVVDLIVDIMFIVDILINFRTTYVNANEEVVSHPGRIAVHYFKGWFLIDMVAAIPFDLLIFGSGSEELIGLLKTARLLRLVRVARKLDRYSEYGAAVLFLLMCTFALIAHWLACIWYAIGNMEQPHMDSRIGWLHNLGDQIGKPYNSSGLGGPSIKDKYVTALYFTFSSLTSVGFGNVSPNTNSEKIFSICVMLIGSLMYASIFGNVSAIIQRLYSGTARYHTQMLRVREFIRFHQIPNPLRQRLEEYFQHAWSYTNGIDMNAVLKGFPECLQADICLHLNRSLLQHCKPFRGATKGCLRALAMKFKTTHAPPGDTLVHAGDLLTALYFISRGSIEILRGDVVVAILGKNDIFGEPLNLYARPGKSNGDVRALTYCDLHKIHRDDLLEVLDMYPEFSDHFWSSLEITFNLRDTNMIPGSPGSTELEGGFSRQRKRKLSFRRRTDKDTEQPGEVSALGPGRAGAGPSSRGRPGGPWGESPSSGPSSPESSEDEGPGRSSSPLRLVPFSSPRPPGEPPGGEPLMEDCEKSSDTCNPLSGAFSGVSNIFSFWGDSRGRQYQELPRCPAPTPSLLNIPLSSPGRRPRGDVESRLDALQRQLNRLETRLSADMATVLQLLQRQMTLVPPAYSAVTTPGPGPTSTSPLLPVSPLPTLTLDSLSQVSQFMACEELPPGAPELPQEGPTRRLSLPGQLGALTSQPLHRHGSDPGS", "assay": "Inhibition of human ERG"}, "[13]": {"assay": "MRT (0 to infinity) in Beagle dog at 0.25 mg/kg, iv", "type": "ADME, organism-based, Canis lupus familiaris", "settings": "in vivo"}, "[14]": {"assay": "Permeability in human Caco-2 cells at 2 to 50 uM", "type": "ADME, cell-based", "settings": "dose 2-50 µM, read-out: permeability"}, "[15]": {"assay": "Half life in Sprague-Dawley rat plasma at 10 mg/kg, po", "type": "ADME, organism-based"}, "Butyrylcholinesterase": {"biological_target": "Butyrylcholinesterase (Rattus norvegicus, UniProt Q9JKC1)", "sequence (Q9JKC1 whole entry)": "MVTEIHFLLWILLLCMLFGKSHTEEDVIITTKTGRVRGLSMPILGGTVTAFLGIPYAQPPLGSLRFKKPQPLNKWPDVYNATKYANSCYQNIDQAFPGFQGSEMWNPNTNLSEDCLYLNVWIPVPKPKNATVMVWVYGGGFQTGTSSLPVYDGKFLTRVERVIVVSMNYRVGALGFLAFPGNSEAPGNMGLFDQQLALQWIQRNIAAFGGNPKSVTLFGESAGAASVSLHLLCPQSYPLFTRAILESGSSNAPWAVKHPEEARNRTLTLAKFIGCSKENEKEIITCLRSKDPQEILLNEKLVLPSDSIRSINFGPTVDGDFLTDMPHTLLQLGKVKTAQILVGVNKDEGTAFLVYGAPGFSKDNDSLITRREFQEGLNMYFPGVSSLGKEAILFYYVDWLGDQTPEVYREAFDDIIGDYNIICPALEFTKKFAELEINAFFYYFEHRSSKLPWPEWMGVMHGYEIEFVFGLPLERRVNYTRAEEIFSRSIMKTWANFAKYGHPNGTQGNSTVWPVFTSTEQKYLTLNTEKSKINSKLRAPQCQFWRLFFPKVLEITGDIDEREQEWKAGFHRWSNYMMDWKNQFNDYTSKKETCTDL", "assay": "Inhibition of rat serum BuChE using S-butyrylthiocholine iodide as substrate incubated for 8 mins by Ellman's method", "type": "cell-free"}, "[16]": {"assay": "Toxicity in Beagle dog assessed as effect on body temperature at 0.1 to 1 mg/kg", "type": "organism-based, Canis lupus familiaris", "settings": "in vivo, dose 0.1-1 mg/kg"}, "[17]": {"assay": "Cardiotoxicity in Beagle dog assessed as effect on PR interval at 0.1 to 1 mg/kg", "type": "toxicity, organism-based, Canis lupus familiaris", "settings": "in vivo, dose 0.1-1 mg/kg"}, "[18]": {"assay": "Cardiotoxicity in Beagle dog assessed as effect on […] at 0.1 to 1 mg/kg", "type": "toxicity, organism-based, Canis lupus familiaris", "settings": "in vivo, dose 0.1-1 mg/kg"}, "[19]": {"assay": "Terminal half life in human plasma at 8 mg, po", "type": "ADME, cell-free", "settings": "read-out: beta t1/2 (converted)"}}, "note": "Calls of active or inactive are those of the source. No cut-off for these calls is given here.", "data": [{"smiles": "COc1cc2c(cc1OC)C(=O)C(CC1(F)CCN(Cc3ccccc3F)CC1)C2", "note": "(stereo not given)", "values": [{"measurement": "AUC(0-t)", "setting": "[1]", "result": 1080, "unit": "ng·h/mL"}, {"measurement": "Activity", "setting": "Mus musculus [2]", "result": "Active"}, {"measurement": "fraction unbound", "setting": "[3]", "result": 0.022}, {"measurement": "AUC(0-inf)", "setting": "[4]", "result": 179, "unit": "ng·h/mL"}, {"measurement": "half-life", "setting": "[5]", "result": 6.99, "unit": "h"}, {"measurement": "Activity", "setting": "[6]", "result": "Non-Toxic"}, {"measurement": "Activity", "setting": "Mus musculus [7]", "result": "Active"}, {"measurement": "AUC(0-inf)", "setting": "[8]", "result": 1140, "unit": "ng·h/mL"}, {"measurement": "Cmax", "setting": "[9]", "result": 8.61, "unit": "ng/mL"}, {"measurement": "Activity", "setting": "[10]", "result": "Non-Toxic"}, {"measurement": "Tmax", "setting": "[11]", "result": 0.5, "unit": "h"}, {"measurement": "IC50", "setting": "[12]", "result": 9.23, "unit": "µM"}, {"measurement": "MRT inf", "setting": "[13]", "result": 23.6, "unit": "h"}, {"measurement": "Papp at up to 50 µM", "setting": "[14]", "result": 0.574, "unit": "×10⁻⁶ cm/s"}, {"measurement": "half-life", "setting": "[15]", "result": 5.57, "unit": "h"}, {"measurement": "IC50", "setting": "Butyrylcholinesterase", "result": 31.7, "unit": "µM"}, {"measurement": "Activity", "setting": "[16]", "result": "Non-Toxic"}, {"measurement": "Activity", "setting": "[17]", "result": "Non-Toxic"}, {"measurement": "Activity", "setting": "[18]", "result": "Non-Toxic"}, {"measurement": "half-life", "setting": "[19]", "result": 27.6, "unit": "h"}]}]}
